Results taken from US6624157B2, “Thiadioxobenzodiazepine inhibitors of farnesyl protein transferase” (Bristol-Myers Squibb Company, priority 1996, dated 2003).
Counter-ions that a name gives are not always drawn.

Q: Which melting point does the source give for O=S1(=O)c2ccccc2N(Cc2cnc[nH]2)CCN1Cc1cccc2ccccc12 (as salt: hydrochloride) [Example 1, 2,3,4,5-Tetrahydro-5-(1H-imidazol-4-ylmethyl)-2-(1-naphthalenylmethyl)-1,2,5-benzothiadiazepine, 1,1-dioxide, monohydrochloride] here?
A: 128 °C

Q: For O=S1(=O)c2ccccc2N(Cc2cnc[nH]2)CCN1CCc1ccccc1 (as salt: hydrochloride) [Example 2, 2,3,4,5-Tetrahydro-5-(1H-imidazol-4-ylmethyl)-2-(2-phenylethyl)-1,2,5-benzothiadiazepine, 1,1-dioxide, monohydrochloride], which melting point is on record?
A: 95 °C

Q: With O=S1(=O)NC(Cc2ccccc2)CN(Cc2cnc[nH]2)c2ccc(Br)cc21 (stereo not shown) (as salt: hydrochloride) [Example 9, N-[2,3,4,5-Tetrahydro-8-bromo-5-(1H-imidazol-4-ylmethyl)-3-(phenylmethyl)-1,2,5-benzothiadiazepine, 1,1-dioxide, monohydrochloride] as the molecule, how does the melting point read?
A: 180 °C

Q: Which melting point does the source give for CN1C(Cc2ccccc2)CN(Cc2cnc[nH]2)c2ccc(Br)cc2S1(=O)=O (stereo not shown) (as salt: hydrochloride) [Example 10, 2,3,4,5-Tetrahydro-8-bromo-2-methyl-5-(1H-imidazol-4-ylmethyl)-3-(phenylmethyl)-1,2,5-benzothiadiazepine, 1,1-dioxide, monohydrochloride] here?
A: 140 °C
